Data on 16 compounds can be found in patent US20060281763A1, “Carboxamide inhibitors of TGFbeta” (priority 2005, published 2006).

Where two headings read alike, the source gives them in different places.

The test deals with T1, TGFβ R1 (Homo sapiens, UniProt P36897).
T1 sequence (P36897 34-503): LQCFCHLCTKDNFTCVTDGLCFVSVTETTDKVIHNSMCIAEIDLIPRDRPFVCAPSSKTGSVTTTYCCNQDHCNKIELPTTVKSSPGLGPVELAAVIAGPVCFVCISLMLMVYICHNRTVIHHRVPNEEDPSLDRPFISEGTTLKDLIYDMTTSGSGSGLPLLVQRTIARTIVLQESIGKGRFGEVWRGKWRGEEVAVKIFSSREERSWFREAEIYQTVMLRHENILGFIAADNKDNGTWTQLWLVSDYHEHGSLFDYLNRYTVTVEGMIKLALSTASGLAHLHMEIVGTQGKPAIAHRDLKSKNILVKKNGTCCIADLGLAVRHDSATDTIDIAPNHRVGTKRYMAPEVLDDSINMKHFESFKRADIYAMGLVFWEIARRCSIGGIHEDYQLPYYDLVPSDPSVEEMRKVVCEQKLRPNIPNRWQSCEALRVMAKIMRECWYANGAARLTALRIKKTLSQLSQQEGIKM
Description: TGFβ R1 autophosphorylation protocol (33P-ATP, phosphocellulose filter plate). The following applies: 10 uM ATP, read-out: IC50 for Kinase Inhibition. It counts as biochemical. The method in brief: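 Radiometric autophosphorylation: 170 nM enzyme with compound (≤1% DMSO), 10 uM ATP plus γ-33P-ATP, […] in 20 mM MOPS pH 7, 20 min at room temperature. Reaction stopped on phosphocellulose filter, washed with H3PO4 and ethanol, counted by scintillation.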

Setting [1] is: 170 nM TGFβ R1, room temperature 20 minutes.
The mark [2] stands for this setting: 170 nM TGFβ R1, 20 minutes at room temperature.

In the case of `COCCCNC(=O)c1cnccc1Nc1nc(-c2cc(Cl)ccc2F)ncc1C(C)C` [Compound 186, 4-[2-(5-Chloro-2-fluoro-phenyl)-5-isopropyl-pyrimidin-4-ylamino]-N-(3-methoxy-propyl)-nicotinamide], the IC50 (usually the concentration needed to halve the response being measured) under setting [1] came out at 11 nM.
For `CNC(=O)[C@@H]1CCCN1CCCNC(=O)c1cnccc1Nc1nc(-c2cc(Cl)ccc2F)ncc1C(C)C` [Compound 177, 4-[2-(5-Chloro-2-fluoro-phenyl)-5-isopropyl-pyrimidin-4-ylamino]-N-[3-(2-methylcarbamoyl-pyrrolidin-1-yl)-propyl]-nicotinamide], the concentration for half-maximal inhibition (IC50) under setting [1] amounted to 11 nM.
Turning to `CC(C)c1cnc(-c2cc(Cl)ccc2F)nc1Nc1ccncc1C(=O)NCCCN1CCC[C@H]1C(=O)N1CCCC1` [Compound 190, 4-[2-(5-Chloro-2-fluoro-phenyl)-5-isopropyl-pyrimidin-4-ylamino]-N-{3-[2-(pyrrolidine-1-carbonyl)-pyrrolidine-1-yl]-propyl}-nicotinamide], the IC50 under setting [1] amounted to 9 nM.
As for `COc1cnc(-c2cc(Cl)ccc2F)nc1Nc1ccncc1C(=O)NCCNCCC1O[C@H](CO)[C@@H](O)[C@H](O)[C@H]1O` (stereo partly shown) [Compound 136, 4-[2-(5-Chloro-2-fluoro-phenyl)-5-methoxy-pyrimidin-4-ylamino]-N-{2-[2-(3,4,5-trihydroxy-6-hydroxymethyl-tetrahydro-pyran-2-yl)-ethylamino]-ethyl}-nicotinamide], the IC50 under setting [2] was 7 nM.
`CC(C)c1cnc(-c2cc(Cl)ccc2F)nc1Nc1ccncc1C(=O)NC[C@H](C)OC(=O)[C@H](N)C(C)C` [Compound 207, 2-Amino-3-methyl-butyric acid 2-({4-[2-(5-chloro-2-fluoro-phenyl)-5-isopropyl-pyrimidin-4-ylamino]-pyridine-3-carbonyl}-amino)-1-methyl-ethyl-ester]: under setting [1], the IC50 amounted to 17 nM.
`O=C(c1cnccc1Nc1nc(-c2cc(Cl)ccc2F)ncc1C1CCCC1)N1CCC[C@H](O)C1` [Compound 226, {4-[2-(5-Chloro-2-fluoro-phenyl)-5-cyclopentyl-pyrimidin-4-ylamino]-pyridin-3-yl}-(3-hydroxy-piperidin-1-yl)-methanone]: the IC50 under setting [1] is 2470 nM.
Turning to `COc1cnc(-c2cc(Cl)ccc2F)nc1Nc1ccncc1C(=O)NCCNCCOC1O[C@H](CO)[C@H](O)[C@H](O)[C@H]1O` (stereo partly shown) [Compound 158], the IC50 under setting [2] is 5 nM.
`COc1cnc(-c2cc(Cl)ccc2F)nc1Nc1ccncc1C(=O)NCCC#N` [Compound 72, 4-[2-(5-Chloro-2-fluoro-phenyl)-5-methoxy-pyrimidin-4-ylamino]-N-(2-cyano-ethyl)-nicotinamide]: under setting [2], the IC50 was 100 nM.
Same read-out and setting: with `COc1cnc(-c2cc(Cl)ccc2F)nc1Nc1ccncc1C(=O)NCCCN1CCCC1C(=O)N(C)C` (stereo not shown) [Compound 81, 4-[2-(5-Chloro-2-fluoro-phenyl)-5-methoxy-pyrimidin-4-ylamino]-N-[3-(2-dimethylcarbamoyl-pyrrolidin-1-yl)-propyl]-nicotinamide] the figure was 120 nM.
For `COc1cnc(-c2cc(Cl)ccc2F)nc1Nc1ccncc1C(=O)NCC(O)CN1CCOCC1` (stereo not shown) [Compound 73, 4-[2-(5-Chloro-2-fluoro-phenyl)-5-methoxy-pyrimidin-4-ylamino]-N-(2-hydroxy-3-morpholin-4-yl-propyl)-nicotinamide], the IC50 under setting [2] worked out at 360 nM.
For the compound `CC(C)c1cnc(-c2cc(Cl)ccc2F)nc1Nc1ccncc1C(=O)NCCCN1CCC[C@H]1CO` [Compound 164, 4-[2-(5-Chloro-2-fluoro-phenyl)-5-isopropyl-pyrimidin-4-ylamino]-N-[3-(2-hydroxymethyl-pyrrolidin-1-yl)-propyl]-nicotinamide], under setting [1], the half-maximal inhibitory concentration (IC50) was 2 nM.
As to `CC(C)c1cnc(-c2cc(Cl)ccc2F)nc1Nc1ccncc1C(=O)NCCCN1CCC[C@@H]1C(=O)N1CCCC1` [Compound 180], the half-maximal inhibitory concentration (IC50) under setting [1] is 5 nM.
On to `CC(C)c1cnc(-c2cc(Cl)ccc2F)nc1Nc1ccncc1C(=O)N1CCN[C@H](C)C1` [Compound 228, {4-[2-(5-Chloro-2-fluoro-phenyl)-5-isopropyl-pyrimidin-4-ylamino]-pyridin-3-yl}-(3-methyl-piperazin-1-yl)-methanone], for which the 50% inhibitory concentration (IC50) under setting [1] came to 2780 nM.
Regarding `COc1cnc(-c2cc(Cl)ccc2F)nc1Nc1ccncc1C(=O)NCCCN1CC[C@H](O)C1` [Compound 109, 4-[2-(5-Chloro-2-fluoro-phenyl)-5-methoxy-pyrimidin-4-ylamino]-N-[3-(3-hydroxy-pyrolidin-1-yl)-propyl]-nicotinamide], the 50% inhibitory concentration (IC50) under setting [2] worked out at 330 nM.
Consider `COc1cnc(-c2cc(Cl)ccc2F)nc1Nc1ccncc1C(=O)NCCCN(C(=O)CC1O[C@H](CO)[C@@H](O)[C@H](O)[C@H]1O)C(C)C` (stereo partly shown) [Compound 149, 4-[2-(5-Chloro-2-fluoro-phenyl)-5-methoxy-pyrimidin-4-ylamino]-N-(3-[isopropyl-[2-(3,4,5-trihydroxy-6-hydroxymethyl-tetrahydro-pyran-2-yl)-acetyl]-amino]-propyl)-nicotinamide], for which, under setting [2], the half-inhibitory concentration (IC50) was determined as 47 nM.
`COc1cnc(-c2cc(Cl)ccc2F)nc1Nc1ccncc1C(=O)NOCC1CC1` [Compound 129, 4-[2-(5-Chloro-2-fluoro-phenyl)-5-methoxy-pyrimidin-4-ylamino]-N-cyclopropylmethoxy-nicotinamide]: under setting [2], the concentration for half-maximal inhibition (IC50) worked out at 59 nM.
